Reference: ChEMBL document CHEMBL4229486, “Design and synthesis of novel thiadiazole-thiazolone hybrids as potential inhibitors of the human mitotic kinesin Eg5” (Bioorg Med Chem Lett, 2018)
Active and inactive are the calls of the source. The rule behind the calls is not given here.

How the values were obtained:
[1] = molecular target: T1, Kinesin-like protein KIF11 (Homo sapiens) (UniProt P52732); assay: Inhibition of basal EG5 ATPase activity (unknown origin) by pyruvate kinase/lactate dehydrogenase enzyme coupled photometric assay
T1 sequence (whole entry): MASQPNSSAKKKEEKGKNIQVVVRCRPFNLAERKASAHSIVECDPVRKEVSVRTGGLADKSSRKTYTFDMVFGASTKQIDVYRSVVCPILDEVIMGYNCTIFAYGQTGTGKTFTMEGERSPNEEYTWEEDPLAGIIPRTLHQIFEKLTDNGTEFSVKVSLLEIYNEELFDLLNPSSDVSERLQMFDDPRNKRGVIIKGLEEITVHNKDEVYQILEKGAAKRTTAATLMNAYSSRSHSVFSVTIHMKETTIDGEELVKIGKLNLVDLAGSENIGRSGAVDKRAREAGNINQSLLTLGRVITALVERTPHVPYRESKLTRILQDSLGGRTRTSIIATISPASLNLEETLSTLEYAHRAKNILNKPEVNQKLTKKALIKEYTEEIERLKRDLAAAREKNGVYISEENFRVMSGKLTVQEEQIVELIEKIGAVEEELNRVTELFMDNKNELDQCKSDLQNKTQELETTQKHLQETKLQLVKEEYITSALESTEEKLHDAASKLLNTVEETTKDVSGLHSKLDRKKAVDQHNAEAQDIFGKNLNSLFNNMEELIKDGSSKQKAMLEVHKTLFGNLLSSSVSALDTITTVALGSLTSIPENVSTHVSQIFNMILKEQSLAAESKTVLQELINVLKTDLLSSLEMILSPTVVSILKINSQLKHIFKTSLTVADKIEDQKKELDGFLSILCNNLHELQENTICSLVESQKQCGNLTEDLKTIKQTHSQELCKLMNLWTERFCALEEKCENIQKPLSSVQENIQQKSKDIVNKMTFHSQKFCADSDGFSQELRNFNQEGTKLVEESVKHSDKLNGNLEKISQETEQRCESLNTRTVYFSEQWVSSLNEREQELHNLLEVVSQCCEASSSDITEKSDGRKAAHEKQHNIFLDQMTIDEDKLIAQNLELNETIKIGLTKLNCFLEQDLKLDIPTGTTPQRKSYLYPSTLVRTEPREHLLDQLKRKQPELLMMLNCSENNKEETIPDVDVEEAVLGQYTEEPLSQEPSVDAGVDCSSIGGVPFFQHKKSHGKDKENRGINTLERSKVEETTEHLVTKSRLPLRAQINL

[2] = molecular target: T2, Kinesin-like protein KIF11 (Homo sapiens, UniProt P52732); assay: Inhibition of MT-stimulated EG5 ATPase activity (unknown origin) by pyruvate kinase/lactate dehydrogenase enzyme coupled photometric assay
T2 sequence (P52732 whole entry): T1 sequence (whole entry)

[3] = molecular target: T2, Kinesin-like protein KIF11; assay: Inhibition EG5 (unknown origin)

Compound	inhibition [1]	IC50 ([2]; read-out: IC50) [µM]	IC50 [3] [µM]	IC50 [2]
CC(=O)N1N=C(NC2=NC(=O)/C(=C/C=C/c3ccccc3)S2)SC1(C)c1ccccc1 (configuration not stated)	inactive	75 to 248	–	–
CC(=O)N1N=C(NC2=NC(=O)/C(=C/c3ccc(N(C)C)cc3)S2)SC1(C)c1ccccc1 (configuration not stated)	inactive	90 to 252	–	–
CC(=O)C1=NN(c2cc(C)ccc2F)C[C@]1(CCCN(C)C)c1ccccc1	–	–	0.0002	–
CC(=O)N1N=C(NC2=NC(=O)/C(=C/c3cccs3)S2)SC1(C)c1ccccc1 (configuration not stated)	inactive	133	–	–
CC(=O)N1N=C(NC2=NC(=O)/C(=C/C=C/c3ccc(N(C)C)cc3)S2)SC1(C)c1ccccc1 (configuration not stated)	inactive	129	–	–
CC1=C(C(=O)OC(C)C)C(c2ccc(Cl)cc2)n2c(s/c(=C\c3ccc(OCC(=O)O)cc3)c2=O)=N1 (configuration not stated)	–	–	4.6	–
CC(=O)N1N=C(NC2=NC(=O)/C(=C/c3ccccc3[N+](=O)[O-])S2)SC1(C)c1ccccc1 (configuration not stated)	–	–	–	Active
CC(=O)N1N=C(NC2=NC(=O)/C(=C/c3ccco3)S2)SC1(C)c1ccccc1 (configuration not stated)	inactive	120 to 331	–	–
CCNCCS(=O)(=O)NC[C@@]1(c2ccccc2)SC(NC(=O)C(C)(C)C)=NN1C(=O)C(C)(C)C [LITRONESIB]	–	–	0.007	–
COc1ccc(/C=C/C=C2\SC(NC3=NN(C(C)=O)C(C)(c4ccccc4)S3)=NC2=O)cc1 (configuration not stated)	inactive	90 to 414	–	–
CC(=O)N1N=C(NC2=NC(=O)/C(=C/c3ccccc3F)S2)SC1(C)c1ccccc1 (configuration not stated)	inactive	70 to 133	–	–

Further lines, results first:

inhibition [1]	IC50 ([2]; read-out: IC50) [µM]	IC50 [3] [µM]	IC50 [2]	Compound
inactive	17.2	–	–	CC(=O)N1N=C(NC2=NC(=O)/C(=C/c3ccc(OCc4ccccc4)cc3)S2)SC1(C)c1ccccc1 (configuration not stated)
inactive	71.9	–	–	COc1cccc(/C=C2\SC(NC3=NN(C(C)=O)C(C)(c4ccccc4)S3)=NC2=O)c1OC (configuration not stated)
inactive	13.2	–	–	CC(=O)N1N=C(NC2=NC(=O)/C(=C/c3ccccc3Cl)S2)SC1(C)c1ccccc1 (configuration not stated)
inactive	47.8	–	–	CC(=O)N1N=C(NC2=NC(=O)/C(=C/c3cccc(Cl)c3)S2)SC1(C)c1ccccc1 (configuration not stated)
inactive	20.2	–	–	CC(=O)N1N=C(NC2=NC(=O)/C(=C/c3ccc([N+](=O)[O-])cc3)S2)SC1(C)c1ccccc1 (configuration not stated)
inactive	42.7	–	–	COc1ccc(/C=C2\SC(NC3=NN(C(C)=O)C(C)(c4ccccc4)S3)=NC2=O)cc1 (configuration not stated)
inactive	120	–	–	CC(=O)N1N=C(NC2=NC(=O)/C(=C/c3ccccn3)S2)SC1(C)c1ccccc1 (configuration not stated)
inactive	39.2	–	–	CC(=O)N1N=C(NC2=NC(=O)/C(=C/c3ccc(Br)cc3)S2)SC1(C)c1ccccc1 (configuration not stated)
inactive	63.3	–	–	CC(=O)N1N=C(NC2=NC(=O)/C(=C/c3ccc(C)cc3)S2)SC1(C)c1ccccc1 (configuration not stated)
inactive	51	–	–	COc1cccc(/C=C2\SC(NC3=NN(C(C)=O)C(C)(c4ccccc4)S3)=NC2=O)c1 (configuration not stated)
inactive	62.1	–	–	CC(=O)N1N=C(NC2=NC(=O)/C(=C/c3ccccc3)S2)SC1(C)c1ccccc1 (configuration not stated)
inactive	60 to 112	–	–	COc1ccc(/C=C2\SC(NC3=NN(C(C)=O)C(C)(c4ccccc4)S3)=NC2=O)cc1OC (configuration not stated)
inactive	106	–	–	CC(=O)N1N=C(NC2=NC(=O)/C(=C/c3ccc(Cl)cc3)S2)SC1(C)c1ccccc1 (configuration not stated)
–	0.8	–	–	CC(=O)NC1=NN(C(C)=O)C(C)(c2ccccc2)S1 (configuration not stated)
inactive	27.5	–	–	CC(=O)N1N=C(NC2=NC(=O)/C(=C/c3cccc([N+](=O)[O-])c3)S2)SC1(C)c1ccccc1 (configuration not stated)
